# Target: T1, MCAK (Kinesin-like protein KIF2C/MCAK) (Homo sapiens, UniProt Q99661)
# T1 sequence (Q99661 2-725): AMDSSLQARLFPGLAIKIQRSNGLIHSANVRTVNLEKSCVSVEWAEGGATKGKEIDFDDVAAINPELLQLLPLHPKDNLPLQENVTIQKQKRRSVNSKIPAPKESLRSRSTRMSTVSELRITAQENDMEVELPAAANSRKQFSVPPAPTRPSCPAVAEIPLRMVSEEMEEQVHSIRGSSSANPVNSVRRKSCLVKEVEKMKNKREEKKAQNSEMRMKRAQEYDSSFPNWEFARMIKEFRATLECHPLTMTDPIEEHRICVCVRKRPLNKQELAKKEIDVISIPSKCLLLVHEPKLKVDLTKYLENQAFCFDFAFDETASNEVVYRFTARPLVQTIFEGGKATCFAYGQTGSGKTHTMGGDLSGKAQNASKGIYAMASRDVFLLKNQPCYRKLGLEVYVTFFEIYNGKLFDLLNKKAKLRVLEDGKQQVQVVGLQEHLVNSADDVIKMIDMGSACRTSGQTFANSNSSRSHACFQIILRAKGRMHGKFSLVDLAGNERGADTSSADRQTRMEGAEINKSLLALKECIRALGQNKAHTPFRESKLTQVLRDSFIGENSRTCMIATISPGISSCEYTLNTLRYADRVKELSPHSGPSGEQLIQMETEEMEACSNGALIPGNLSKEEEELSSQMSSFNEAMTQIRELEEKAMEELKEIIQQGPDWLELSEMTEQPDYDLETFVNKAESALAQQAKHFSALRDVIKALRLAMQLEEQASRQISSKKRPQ
# Experiment: displacement of MCAK from immobilized ligand […], Western blot
# Type: biochemical
# Settings: MgATP in NP-40 lysis buffer, 15 min
smiles,measurement,value
Nc1ncnc2c1ncn2[C@@H]1O[C@H](COP(=O)(O)OP(=O)(O)OP(=O)(O)O)[C@@H](O)[C@H]1O [ATP],"displacement of MCAK from immobilized ligand 3, Western blot",MCAK binding to the immobilized drug could be inhibited by increasing concentrations of ATP
